What is called melting point is the temperature, or range, at which the solid turns liquid. `O=C1c2[nH]c3cc(-c4ccccc4)nn3c(=O)c2CCN1C1CCCCC1`: the melting point is above 320 °C.

Consider `COc1ccc(C(=O)Nc2ccc(F)c(F)c2)cc1NCc1cccnc1`, for which the melting point lay in the range of 148 to 149 °C.

Regarding `O=C(c1ccc(-c2ccc(=O)n(-c3ccc(F)cc3)n2)cc1)N1CCC[C@H]1CN1CCCC1`, the melting point is 177 °C. As for `CCOC(=O)c1c(C(F)(F)F)nc(C(F)(F)F)c(C(=O)OC)c1N1CCCC1`, the melting point fell in the range of 68.5 to 70 °C.

`CC(C)CCCC(C)C1CCC2C3CC=C4CC(OCCO)CCC4(C)C3CCC12C` (centres undefined) came in with a melting point of 92 to 95 °C.

`Cc1ccc(S(=O)(=O)OCC2COc3cc(C)ccc3O2)cc1` (centres undefined): the melting point is 84 °C. Turning to `O=c1[nH]c(=Cc2ccc3ccccc3n2)c(=O)[nH]c1=Cc1ccc(Cl)cc1`, the melting point was in the range of 348 to 349 °C. Compound `CCCCCCCCCCCCCCC(=O)Oc1ccc2cc(C(=N)N)ccc2c1` displayed a melting point of 153 °C. In the case of `N#Cc1ccc(-c2ccc(Br)o2)cc1` it was 94 to 94.5 °C; in that of `C(=Cc1ccc(-c2cc3c(ccc4oc5ccccc5c43)o2)cc1)c1ccccc1`, 239 to 241 °C; in that of `COc1cc(N)c(Cl)cc1C(=O)N[C@H]1CCN(CCCNc2ncccn2)C[C@H]1OC` (relative stereo), 158 °C.

Take `CCCCCCCCCCCCON(Cc1ccccc1)C(c1ccccc1)P(=O)(OCCCCCCCCCCCC)OCCCCCCCCCCCC` (centres undefined): the melting point fell in the range of 38 to 40 °C.

For `O=S(=O)(c1ccc(F)cc1)c1c[nH]c2ccc(Br)cc12`, the melting point lay in the range of 163 to 164 °C. In the case of `Cc1cc(-c2ccc(C(F)(F)F)cc2)cc(-c2cccc(-c3csc(N)n3)c2)n1`, the melting point was above 250 °C.

In turn, `COc1cc(COc2nn(CCO)cc2CO)ccc1OCc1nc(-c2ccco2)oc1C` displayed a melting point of 120 to 122 °C. Compound `CN(C)CCOc1ccc(C2(c3ccccc3)OCCC2c2ccccc2)cc1` (centres undefined) returned a melting point of 83 to 85 °C. `CN1CCN(c2cc3c(cc2F)c(=O)n(O)c(=O)n3-c2ccccc2F)CC1` showed a melting point of 160 to 162 °C. The compound `CC(C)=CCC/C(C)=C/CSc1nc2cc(C(F)(F)F)ccc2[nH]1` showed a melting point of 106 to 108 °C. As for `CN1Cc2c(CO)ncn2-c2ccc(F)cc2C1=O`, the melting point lay in the range of 221 to 223 °C. `O=C1c2cccc(O)c2CN1C1CCN(CCC(c2ccccc2)c2ccccc2)CC1`: the melting point lay within 114 to 118 °C. `COc1ccc(S(=O)(=O)Nc2cccnc2Nc2ccccc2)cc1OC` returned a melting point of 171 to 172 °C. The same measure for `COc1cc(OC)nc(C(=O)NS(=O)(=O)NC(C)C)n1`: 167 to 169 °C; for `C#Cc1c(C#N)nn(-c2c(Cl)cc(OC(F)(F)F)cc2Cl)c1N`: 176 °C. `CCOc1ccc(-c2nc(-c3cc4c(c(C(=O)O)c3)OC(C)(C)C4)cs2)cc1OCC` yielded a melting point of 106 to 107 °C.

Take `N#CCc1cccn1Cc1ccccc1`: the melting point is 62 to 63 °C. On to `Cc1nc2ccccc2cc1NC(=O)N1CCN(c2cc(Cl)cc(Cl)c2)CC1`, for which the melting point is 247 to 249 °C. `NC1=NN(c2ccccn2)C(c2ccccc2)C1` (centres undefined): the melting point was 203 to 206 °C. As for `CCNC(=O)c1c([Si](C)(C)C)ccc(C(C)=O)c1Cl`, the melting point was in the range of 78 to 80 °C. The same measure for `COc1ccc(-c2c(Cl)c(CN3C(=O)CCC3=O)nc3sc4c(c23)CCC(C(=O)N2CCOCC2)C4)cc1` (centres undefined): 170 to 171 °C; for `CC(=O)N1C[C@H]2CCC[C@H]2OC1=O` (relative stereo): 80 to 83 °C.

Turning to `OCC(Cl)=C(Cl)CC(O)(Cn1cncn1)C1(Cl)CC1` (centres undefined), the melting point fell in the range of 130 to 132 °C. `COc1nc(Cl)n2nc(SCc3ccccc3)nc2c1Br`: the melting point is 124 to 125 °C. As to `COc1ccc(N=C(Cl)c2ccc(OC)cc2)cc1`, the melting point was found to be 116 °C. Turning to `Cc1cccc2c1N(CC(=O)N1CC3CCC(CC3)C1)C(=O)C(NC(=O)Nc1cccc(-c3nnn[nH]3)c1)N=C2c1ccccc1F` (centres undefined), the melting point fell in the range of 210 to 213 °C.
